How the values were obtained:
E. coli K-12 BW25113 = conditions: from Chowdhury, Wood, et al., 2016; cited from earlier work
P. aeruginosa PA14 = conditions: from Chowdhury, Wood, et al., 2016; cited from earlier work
S. aureus ATCC29213 = conditions: from Chowdhury, Wood, et al., 2016; cited from earlier work
[1] = tested on: P. aeruginosa PA14 exponentially-growing cells; experiment: Killing at one MIC in PBS, NPIMA compared with cisplatin; format: cell-based, Pseudomonas aeruginosa
Source text: FIG. 7. NPIMA compared width cisplatin for killing Pseudomonas aeruginosa, Escherichia coli, and Staphylococcus aureus. Survival of exponentially-growing cells of P. aeruginosa PA14 (a), E. coli (b), and S. aureus (c) treated with one MIC of NPIMA (♦) and cisplatin (●) for 3 hr in PBS. DMSO (▴) and NaClO4 (*) were used as a negative controls. MIC, minimum inhibitory concentration; NPIMA, 5-nitro-3-phenyl-1H-indol-2-yl-methylamine hydrochloride.
For bacterial viability, cells were washed twice with 0.85% NaCl, resuspended in 1×PBS, and cell counts were determined via the drop assay (Donegan, Matyac, Seidler, & Porteous, 1991). For human cell viability, pre-cultured human cancer HT-29 cells were dispensed in 98 μl in 96-well plates with approximately 5,000 cells/well. NPIMA was added (2 μl) to produce concentrations of 5, 10, 100, and 200 μM. For controls, Triton X-100 (positive control) and DMSO (negative solvent control), were used, and the medium was used for background. Plates were incubated in a humidified incubator (37° C., 5% CO2) for 24 hr. Cell viability was determined via a cell counting kit (CCK-8 Kit, ab228554; Abcam), and cytotoxicity was determined via the lactate dehydrogenase (LDH) assay (LDH Assay Kit, MK401; Takara).

N.N.[Cl][Pt][Cl] [cisplatin]
MIC (E. coli K-12 BW25113): 300 µM | MIC (P. aeruginosa PA14): 150 µM | MIC (S. aureus ATCC29213): 1000 µM | time to eradicate P. aeruginosa cells [1]: 1 h
